Assay results as given in paper PMC8151276, “An Integrated Approach toward NanoBRET Tracers for Analysis of GPCR Ligand Engagement” (Molecules, 2021).

Biological target: T1, GALR3 (Homo sapiens, UniProt O60755)
T1 construct: purchased Promega (in-house HiBiT-GPCR construct library, NanoBRET)
T1 sequence (O60755 1-368): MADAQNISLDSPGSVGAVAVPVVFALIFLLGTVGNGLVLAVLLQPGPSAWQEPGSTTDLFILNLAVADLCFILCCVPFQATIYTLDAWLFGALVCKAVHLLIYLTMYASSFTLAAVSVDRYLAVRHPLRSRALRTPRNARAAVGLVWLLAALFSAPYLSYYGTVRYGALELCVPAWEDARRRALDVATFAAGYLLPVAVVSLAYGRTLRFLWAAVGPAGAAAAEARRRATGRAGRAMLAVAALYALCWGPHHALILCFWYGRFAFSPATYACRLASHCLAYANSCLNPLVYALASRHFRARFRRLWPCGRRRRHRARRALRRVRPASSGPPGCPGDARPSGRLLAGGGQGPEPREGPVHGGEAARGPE
Experiment: NanoBRET screen HiBiT-GALR3 in HEK293
Format: binding
Procedure: Each tracer candidate was screened across the entire library of HiBiT-GPCR constructs using NanoBRET as the detection modality. As depicted in Figure 4A, the specificity of interactions was evaluated through decrease in BRET due to competitive displacement of a bound tracer by excess parental compound. Each tracer was analyzed for binding to each HiBiT-GPCR fusion in the absence and in the presence of competing parental compound. Briefly, HEK293 cells were transfected with HiBiT-GPCR constructs diluted into promoterless DNA to reduce expression and maximize translocation to the cell surface. Each tracer candidate was then screened at concentrations of 1 μM and 0.1 μM across cells expressing these fusions. Cells were treated for 1.5 h with tracer either alone or in the presence of 20 μM competing parental compound (i.e., control). BRET was measured upon addition of purified LgBiT and subsequent complementation with HiBiT genetically fused to a GPCR. The specificity of interactions was assessed through a decrease in BRET signal due to competitive displacement of the bound tracer. To further gauge the robustness of these interactions, the fold response over the control (i.e., BRETtracer/BRETcontrol) was calculated. We chose a 1.5-fold response, which translates to ≥7-fold signal over noise as the minimal threshold required to score an interaction as positive. […]. Below we highlight the screening results obtained for our exemplary fluorescent tracers based on Clozapine, Amitriptyline and AZD1283.
HiBiT-GPCR DNA constructs were diluted in 10 mM Tris pH 8 to a final concentration of 0.01 μg/μL, arrayed in 96-well plates and stored at −20 °C. For transfection, HEK293 cells were suspended in Opti-MEM (without phenol red) supplemented with 2% fetal bovine serum (Seradigm) and 100 units/mL penicillin–streptomycin (Gibco) at a final concentration of 220,000 cells/mL and dispensed into white 96-well plates at 90 μL/well. Subsequent transfections and screens were carried using an Agilent Bravo Automated Liquid Handling Platform. First, the 96-well HiBiT DNA arrays were diluted 25-fold in Opti-MEM (without serum or phenol red) to a final concentration of 0.0004 μg/μL and 20 μL of the diluted DNAs were transferred into new 96-well plates. Next, promoterless carrier DNA (1 μg/μL) was diluted 25-fold (0.04 μg/μL) and then dispensed into the diluted arrays at 20 μL/well. Following brief mixing, Viafect transfection reagent (Promega) diluted 16-fold into Opti-MEM was dispensed into the plates at 40 μL/well. After mixing by pipetting, plates were incubated for 10 min on the pipetting station deck. The DNA-transfection reagent complexes were then added to plates containing cells. To facilitate the screen, 10 μL of DNA-transfection reagent complexes were added in duplicates to the top 4 and bottom 4 rows, resulting in two identical 48-well arrays per plate. Plates with transfected cells were incubated for 18–20 h at 37 °C/5% CO2. A screen of each tracer across the entire library using two different concentrations requires duplicate plates of transfected cells. Depending on the number of tracers being screened, transfections can be scaled up using the same ratios. The next day, for each tracer, four 20× screening solutions in tracer dilution buffer (Promega) were prepared: two duplicates at final concentration of 20 μM and two duplicates at a final concentration of 2 μM. A competing unmodified compound was added to one of each duplicate at a final concentration of 400 μM. The four resulting solutions were diluted 4-fold in Opti-MEM without serum or phenol red to generate 5× solutions (5 µM and 0.5 µM tracer +/− 100 μM competing compound). To screen the library, a BioTek MultiFlo FX liquid dispenser was used to dispense 22.5 µL of tracer solution to the top 4 rows and 22.5 µL tracer + competing compound solution to the 4 bottom rows. Plates were briefly mixed on an orbital shaker and incubated for 1.5 h at room temperature. […]

Structure (SMILES) | NanoBRET Fold Response (GALR3, tracer 0.1μM) | NanoBRET Fold Response (GALR3, tracer 1μM) | further results
CCOC(=O)c1cc(C#N)c(N2CCC(C(=O)NS(=O)(=O)Cc3ccccc3/C=C/C(=O)NCCNC(=O)CCc3ccc4n3[B-](F)(F)[N+]3=C(c5ccc[nH]5)C=CC3=C4)CC2)nc1C [AZD1283-1-NB590] |  |  | NanoBRET Fold Response (GALR3, 0.1μM): 0.91; NanoBRET Fold Response (GALR3, 1μM): 1.00
N#CN=C(NCCCOc1cccc(CN2CCCCC2)c1)NCCNC(=O)CCOCCOCCOCCOCCNC(=O)CCc1ccc2n1[B-](F)(F)[N+]1=C(c3ccc[nH]3)C=CC1=C2 [Aminopotentidine-2-NB590] | 1.09 | 1.01 | 
CN(C)CCC=C1c2ccccc2CCc2ccc(C(=O)NCCNC(=O)CCOCCOCCOCCOCCNC(=O)CCc3ccc4n3[B-](F)(F)[N+]3=C(c5ccc[nH]5)C=CC3=C4)cc21 [Amitriptyline-a-2-NB590] |  |  | NanoBRET Fold Response (tracer at 0.1μM): 0.98; NanoBRET Fold Response (tracer at 1μM): 1.04
CN(C)CCC=C1c2ccccc2CCc2ccc(C(=O)NCCNC(=O)CCOCCOCCOCCOCCNC(=O)CCc3ccc4n3[B-](F)(F)[N+]3=C(c5ccc[nH]5)C=CC3=C4)cc21 [Amitriptyline-b-2-NB590] |  |  | NanoBRET Fold Response (tracer at 0.1μM, listed as amitriptyline-b-2-NB590): 1.46; NanoBRET Fold Response (tracer at 1μM, listed as amitriptyline-b-2-NB590): 0.95
COc1ccc2c(n1)c(CCNC(C)=O)cn2CCNC(=O)CCc1ccc2n1[B-](F)(F)[N+]1=C(c3ccc[nH]3)C=CC1=C2 [Azamelatonin-1-NB590] |  |  | NanoBRET Fold Response (0.1μM tracer): 0.81; NanoBRET Fold Response (1μM tracer): 1.05
COc1ccc2[nH]c(-c3ccc(CNC(=O)CCOCCOCCOCCOCCNC(=O)CCc4ccc5n4[B-](F)(F)[N+]4=C(c6ccc[nH]6)C=CC4=C5)cc3)c(CCNC(C)=O)c2n1 [AzomelatoninICO9-2-NB590] |  |  | NanoBRET Fold Response (0.1μM tracer): 1.06; NanoBRET Fold Response (1μM tracer): 1.08
O=C(CCOCCOCCOCCOCCNC(=O)CCc1ccc2n1[B-](F)(F)[N+]1=C(c3ccc[nH]3)C=CC1=C2)NCCCN1CCN(C2=Nc3cc(Cl)ccc3Nc3ccccc32)CC1 [Clozapine-a-2-NB590] |  |  | NanoBRET Fold Response (GALR3, 0.1μM tracer): 1.02; NanoBRET Fold Response (GALR3, 1μM tracer): 1.13
CN1CCN(C2=Nc3cc(Cl)ccc3Nc3ccc(CNC(=O)CCOCCOCCOCCOCCNC(=O)CCc4ccc5n4[B-](F)(F)[N+]4=C(c6ccc[nH]6)C=CC4=C5)cc32)CC1 [Clozapine-b-2-NB590] |  |  | NanoBRET Fold Response (GALR3, 0.1μM tracer): 0.93; NanoBRET Fold Response (GALR3, 1μM tracer): 0.91
CN1CCN(C2=Nc3cc(Cl)ccc3N(CC(=O)NCCOCCOCCOCCOCCNC(=O)CCc3ccc4n3[B-](F)(F)[N+]3=C(c5ccc[nH]5)C=CC3=C4)c3ccccc32)CC1 [Clozapine-c-2-NB590] |  |  | NanoBRET Fold Response (GALR3, 0.1μM tracer): 1.01; NanoBRET Fold Response (GALR3, 1μM tracer): 1.04
O=C(CCOCCOCCOCCOCCNC(=O)CCc1ccc2n1[B-](F)(F)[N+]1=C(c3ccc[nH]3)C=CC1=C2)NCCCN1CCN(C2=Nc3ccccc3Oc3ccc(Cl)cc32)CC1 [Loxapine-a-2-NB590] | 0.95 | 1.10 | 
COc1ccccc1N1CCN(CCCCN2C(=O)c3ccc(CNC(=O)CCOCCOCCOCCOCCNC(=O)CCc4ccc5n4[B-](F)(F)[N+]4=C(c6ccc[nH]6)C=CC4=C5)cc3C2=O)CC1 [NAN-190-2-NB590] | 0.97 | 1.10 | 
COc1ccccc1N1CCN(CCCCN2C(=O)c3ccc(CNC(=O)CCOCCNC(=O)c4ccc(CNC(=O)CCc5ccc6n5[B-](F)(F)[N+]5=C(c7ccc[nH]7)C=CC5=C6)cc4)cc3C2=O)CC1 [NAN-190-3-NB590] | 0.97 | 0.92 | 
O=C(CCc1ccc2n1[B-](F)(F)[N+]1=C(c3ccc[nH]3)C=CC1=C2)NCc1ccc(C(=O)NCCOCCC(=O)N[C@@H]2CC[C@@]3(O)[C@H]4Cc5ccc(O)c6c5[C@@]3(CCN4CC3CC3)[C@H]2O6)cc1 [Naltrexone-3-NB590] | 1.03 | 1.01 | 
Cc1cc2c(s1)Nc1ccccc1N=C2N1CCN(CCCNC(=O)CCOCCOCCOCCOCCNC(=O)CCc2ccc3n2[B-](F)(F)[N+]2=C(c4ccc[nH]4)C=CC2=C3)CC1 [Olanzapine-a-2-NB590] | 1.12 | 0.87 | 
O=C(CCc1ccc2n1[B-](F)(F)[N+]1=C(c3ccc[nH]3)C=CC1=C2)NCc1ccc(C(=O)NCCOCCOCCNCC(O)COc2cccc3ccccc23)cc1 (stereo not shown) [Propranolol-3-NB590] |  |  | NanoBRET Fold Response (GALR3, 0.1μM): 1.05; NanoBRET Fold Response (GALR3, 1μM): 0.91
O=C(CCc1ccc2n1[B-](F)(F)[N+]1=C(c3ccc[nH]3)C=CC1=C2)NCCOCCOCCNC(=O)OCCOCCN1CCN(C2=Nc3ccccc3Sc3ccccc32)CC1 [Quetiapine-a-2-NB590] | 1.02 | 0.73 | 
Cc1nc2n(c(=O)c1CCN1CCC(c3noc4cc(F)ccc34)CC1)CCCC2OC(=O)NCCOCCOCCOCCOCCNC(=O)CCc1ccc2n1[B-](F)(F)[N+]1=C(c3ccc[nH]3)C=CC1=C2 (stereo not shown) [Risperidone-2-NB590] | 0.90 | 0.94 | 
CC(C)N(CC[C@H](c1ccccc1)c1cc(CCNC(=O)CCOCCOCCOCCOCCNC(=O)CCc2ccc3n2[B-](F)(F)[N+]2=C(c4ccc[nH]4)C=CC2=C3)ccc1O)C(C)C [Tolterodine-2-NB590] | 0.76 | 0.78 | 
CC(C)N(CC[C@H](c1ccccc1)c1cc(CCNC(=O)c2ccc(CNC(=O)CCc3ccc4n3[B-](F)(F)[N+]3=C(c5ccc[nH]5)C=CC3=C4)cc2)ccc1O)C(C)C [Tolterodine-BZ-NB590] | 1.09 | 1.00 | 
CCCn1c(=O)c2[nH]c(-c3ccc(OCC(=O)NCCNC(=O)CCOCCNC(=O)c4ccc(CNC(=O)CCc5ccc6n5[B-](F)(F)[N+]5=C(c7ccc[nH]7)C=CC5=C6)cc4)cc3)nc2n(CCC)c1=O [XAC-3-NB590] | 1.01 | 1.04 | 
